Measured values reported in patent US10745382B2 (BRISTOL-MYERS SQUIBB COMPANY, priority 2015, dated 2020).

Target: T1, PD-1/PD-L1 (Homo sapiens, UniProt Q9NZQ7)
T1 construct: made in house; host or cells: HEK293T
Assay: PD-1/PD-L1 Homogenous Time-Resolved Fluorescence (HTRF) binding assay
Conditions: PD-L1-His 10 nM, PD-1-Ig 20 nM; value given as range class; read-out: Range or IC50
Outline: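 dPBS + 0.1% BSA + 0.05% Tween-20 buffer; Eu-cryptate anti-Ig 1 nM final, APC anti-His 20 nM final; HTRF read. Counter-assays: PD-1-Ig/PD-L2-His 20 & 5 nM, CD80-His/PD-L1-Ig 100 & 10 nM.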

T1 sequence (Q9NZQ7 with tags, fused parts or gaps): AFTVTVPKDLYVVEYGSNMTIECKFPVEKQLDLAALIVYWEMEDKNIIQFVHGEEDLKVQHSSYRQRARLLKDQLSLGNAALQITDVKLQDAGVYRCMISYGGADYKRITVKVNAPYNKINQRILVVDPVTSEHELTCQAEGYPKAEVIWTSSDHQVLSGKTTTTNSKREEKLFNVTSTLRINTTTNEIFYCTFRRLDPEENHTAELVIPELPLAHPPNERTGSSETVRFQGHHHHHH

IC50	SMILES
0.21 to 10 nM	CCN(CC)C(=O)C1CCCN(CCCOc2cccc(-c3cccc(COc4cc(OCc5cncc(C#N)c5)c(CN5CCCC[C@H]5C(=O)O)cc4Cl)c3C)c2C)C1 (stereo partly drawn) [Example 2208, (2S)-1-(5-chloro-2-((5-cyanopyridin-3-yl)methoxy)-4-((3′-(3-(3-(diethylcarbamoyl)piperidin-1-yl)propoxy)-2,2′-dimethylbiphenyl-3-yl)methoxy)benzyl)piperidine-2-carboxylic Acid]
0.21 to 10 nM	CO[C@@H]1CCN(CCCOc2cccc(-c3cccc(COc4cc(OCc5cncc(C#N)c5)c(CN5CCCC[C@H]5C(=O)O)cc4Cl)c3C)c2C)C1 [Example 2252, (2S)-1-(5-chloro-2-((5-cyanopyridin-3-yl)methoxy)-4-((3′-(3-((R)-3-methoxypyrrolidin-1-yl)propoxy)-2,2′-dimethylbiphenyl-3-yl)methoxy)benzyl)piperidine-2-carboxylic Acid]
0.21 to 10 nM	Cc1c(COc2cc(OCc3cncc(C#N)c3)c(CN[C@](C)(CO)C(=O)O)cc2Cl)cccc1-c1cccc(OCCCN2CCC(O)(CO)CC2)c1Cl [Example 2061, (R)-2-((5-chloro-4-((2′-chloro-3′-(3-(4-hydroxy-4-(hydroxymethyl)piperidin-1-yl)propoxy)-2-methyl-[1,1′-biphenyl]-3-yl)methoxy)-2-((5-cyanopyridin-3-yl)methoxy)benzyl)amino)-3-hydroxy-2-methylpropanoic Acid]
0.21 to 10 nM	Cc1c(COc2cc(OCc3cncc(S(C)(=O)=O)c3)c(CNC(C)(CO)C(=O)O)cc2Cl)cccc1-c1cccc(OCCCN2CCC(CO)(C(=O)O)C2)c1Cl (single isomer, unassigned) [Example 1064]
0.21 to 10 nM	CCOC(=O)C1(CO)CCN(CCCOc2cccc(-c3cccc(COc4cc(OCc5cncc(S(C)(=O)=O)c5)c(CN[C@H](CO)C(=O)O)cc4Cl)c3C)c2C)C1 (stereo partly drawn) [Example 1045, (2R)-2-((5-chloro-4-((3′-(3-(3-(ethoxycarbonyl)-3-(hydroxymethyl)pyrrolidin-1-yl)propoxy)-2,2′-dimethyl-[1,1′-biphenyl]-3-yl)methoxy)-2-((5-(methylsulfonyl)pyridin-3-yl)methoxy)benzyl)amino)-3-hydroxypropanoic Acid]
0.21 to 10 nM	Cc1c(COc2cc(OCc3cncc(C#N)c3)c(CNC[C@H](O)CO)cc2Cl)cccc1-c1cccc(OCCCN(C)C[C@H](O)CO)c1Cl [Example 2029, 5-((4-chloro-5-((2′-chloro-3′-(3-(((S)-2,3-dihydroxypropyl)(methyl)amino)propoxy)-2-methyl-[1,1′-biphenyl]-3-yl)methoxy)-2-((((S)-2,3-dihydroxypropyl)amino)methyl)phenoxy)methyl)nicotinonitrile]
0.21 to 10 nM	Cc1c(COc2cc(OCc3cncc(C#N)c3)c(CN3CCCC[C@H]3C(=O)O)cc2Cl)cccc1-c1cccc(OCCCN2CCC[C@H](O)C2)c1 [Example 1019, (S)-1-(5-chloro-2-((5-cyanopyridin-3-yl)methoxy)-4-((3′-(3-((S)-3-hydroxypiperidin-1-yl)propoxy)-2-methyl-[1,1′-biphenyl]-3-yl)methoxy)benzyl)piperidine-2-carboxylic Acid]

SMILES	IC50
Cc1cc(OCCCCN2CC[C@@H](O)C2)ccc1-c1cccc(COc2cc(OCc3cncc(C#N)c3)c(CN[C@H](CO)C(=O)O)cc2Cl)c1C [Example 1092, (5-chloro-2-((5-cyanopyridin-3-yl)methoxy)-4-((4′-(4-((R)-3-hydroxypyrrolidin-1-yl)butoxy)-2,2′-dimethyl-[1,1′-biphenyl]-3-yl)methoxy)benzyl)-D-serine]	0.21 to 10 nM
Cc1c(COc2cc(OCc3cncc(C#N)c3)c(CN[C@@H](CNC(=O)OC(C)(C)C)C(=O)O)cc2Cl)cccc1-c1cccc(C(=O)N2CCOCC2)c1C [Example 4056, (S)-3-((tert-butoxycarbonyl)amino)-2-((5-chloro-2-((5-cyanopyridin-3-yl)methoxy)-4-((2,2′-dimethyl-3′-(morpholine-4-carbonyl)-[1,1′-biphenyl]-3-yl)methoxy)benzyl)amino)propanoic Acid]	100 to 2000 nM
